Assays:
[1] = test system: SARS-CoV-2; format: functional, organism-based, Vero E6; conditions: Severe acute respiratory syndrome coronavirus 2, 107, Vero C1008
[2] = test system: SARS-CoV-2; format: functional, organism-based, Vero E6; conditions: Severe acute respiratory syndrome coronavirus 2, Vero C1008

Row | SMILES | EC50 [1] [nM] | EC50 [2] [nM]
1 | COc1ccc(OCC(=O)N2C[C@H]3[C@@H]([C@H]2C(=O)N[C@H](C=O)C[C@@H]2CCNC2=O)C3(C)C)cc1 | 860 | 
2 | O=c1c(O)c(-c2cc(O)c(O)c(O)c2)oc2cc(O)cc(O)c12 [MYRICETIN] |  | 8000
3 | O=C[C@H](C[C@@H]1CCNC1=O)NC(=O)[C@@H]1[C@H]2CCC[C@H]2CN1C(=O)COc1ccc(Cl)cc1Cl | 540 | 
